pIC50: −log10 of the molar value.
What follows are compounds tested against TrkA (Homo sapiens (Human), UniProt P04629) (assay: TrkA Omnia Assay). Settings: averaged IC50; 20 nM enzyme, 500 μM ATP, 10 μM peptide substrate.
Type: biochemical
Procedure, shortened: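 Recombinant TrkA (20 nM) preincubated 10 min at ambient temperature with compound, then Omnia Tyr Peptide #4 (10 μM) and ATP (500 μM) added in 25 mM MOPS pH 7.5, 5 mM MgCl2, 0.005% Triton X-100. Fluorescence (ex 360/em 485 nm) followed continuously for 70 min; IC50 from initial rates by 4- or 5-parameter logistic fit.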

Sequence of TrkA (P04629 33-796): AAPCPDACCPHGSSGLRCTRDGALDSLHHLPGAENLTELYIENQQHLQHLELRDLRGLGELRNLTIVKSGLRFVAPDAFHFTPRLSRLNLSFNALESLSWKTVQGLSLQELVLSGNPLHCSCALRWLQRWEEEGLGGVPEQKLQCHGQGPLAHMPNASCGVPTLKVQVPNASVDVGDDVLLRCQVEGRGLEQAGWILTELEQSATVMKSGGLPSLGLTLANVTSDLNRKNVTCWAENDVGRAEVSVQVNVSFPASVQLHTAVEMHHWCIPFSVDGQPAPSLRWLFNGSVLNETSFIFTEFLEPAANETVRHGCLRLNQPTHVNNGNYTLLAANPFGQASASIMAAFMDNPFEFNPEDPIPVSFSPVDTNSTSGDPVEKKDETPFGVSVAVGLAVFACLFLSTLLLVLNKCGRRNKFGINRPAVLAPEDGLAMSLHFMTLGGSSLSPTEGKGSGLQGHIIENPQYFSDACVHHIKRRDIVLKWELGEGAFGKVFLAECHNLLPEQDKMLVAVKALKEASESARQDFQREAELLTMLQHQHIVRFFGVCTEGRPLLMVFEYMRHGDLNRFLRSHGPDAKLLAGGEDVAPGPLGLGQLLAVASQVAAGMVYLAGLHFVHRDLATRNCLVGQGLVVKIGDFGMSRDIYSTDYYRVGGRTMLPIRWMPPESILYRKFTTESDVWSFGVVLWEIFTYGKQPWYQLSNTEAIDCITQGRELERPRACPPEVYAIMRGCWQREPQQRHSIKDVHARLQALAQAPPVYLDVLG

pIC50, > 7.00:
COCCN1C[C@@H](NC(=O)Nc2c(Cl)c(OC[C@@H](C)O)nn2-c2ccccc2)[C@H](c2cc(F)cc(F)c2)C1 [Example 373, 1-(4-chloro-3-((R)-2-hydroxypropoxy)-1-phenyl-1H-pyrazol-5-yl)-3-((3S,4R)-4-(3,5-difluorophenyl)-1-(2-methoxyethyl)pyrrolidin-3-yl)urea]
COCCN1C[C@@H](NC(=O)Nc2c(Cl)c(OC[C@@H](C)O)nn2-c2ccccc2)[C@H](c2ccc(F)cc2)C1 [Example 374, 1-(4-chloro-3-((R)-2-hydroxypropoxy)-1-phenyl-1H-pyrazol-5-yl)-3-((3S,4R)-4-(4-fluorophenyl)-1-(2-methoxyethyl)pyrrolidin-3-yl)urea]
COCCN1C[C@@H](NC(=O)Nc2c(Br)c(OC[C@@H](C)O)nn2-c2ccccc2)[C@H](c2ccc(F)c(F)c2)C1 [Example 375, 1-(4-bromo-3-((R)-2-hydroxypropoxy)-1-phenyl-1H-pyrazol-5-yl)-3-((3S,4R)-4-(3,4-difluorophenyl)-1-(2-methoxyethyl)pyrrolidin-3-yl)urea]
COCCN1C[C@@H](NC(=O)Nc2c(Br)c(OC[C@@H](C)O)nn2-c2ccccc2)[C@H](c2cc(F)cc(F)c2)C1 [Example 376, 1-(4-bromo-3-((R)-2-hydroxypropoxy)-1-phenyl-1H-pyrazol-5-yl)-3-((3S,4R)-4-(3,5-difluorophenyl)-1-(2-methoxyethyl)pyrrolidin-3-yl)urea]
COCCN1C[C@@H](NC(=O)Nc2c(Br)c(OC[C@@H](C)O)nn2-c2ccccc2)[C@H](c2ccc(F)cc2)C1 [Example 377, 1-(4-bromo-3-((R)-2-hydroxypropoxy)-1-phenyl-1H-pyrazol-5-yl)-3-((3S,4R)-4-(4-fluorophenyl)-1-(2-methoxyethyl)pyrrolidin-3-yl)urea]
CC[C@@H](O)COc1nn(-c2ccccc2)c(NC(=O)N[C@@H]2CN(CCOC)C[C@H]2c2cc(F)cc(F)c2)c1C [Example 378, 1-((3S,4R)-4-(3,5-difluorophenyl)-1-(2-methoxyethyl)pyrrolidin-3-yl)-3-(3-((R)-2-hydroxybutoxy)-4-methyl-1-phenyl-1H-pyrazol-5-yl)urea]
CC[C@@H](O)COc1nn(-c2ccccc2)c(NC(=O)N[C@@H]2CN(CCOC)C[C@H]2c2ccc(F)cc2)c1C [Example 379, 1-((3S,4R)-4-(4-fluorophenyl)-1-(2-methoxyethyl)pyrrolidin-3-yl)-3-(3-((R)-2-hydroxybutoxy)-4-methyl-1-phenyl-1H-pyrazol-5-yl)urea]
CC[C@@H](O)COc1nn(-c2ccccc2)c(NC(=O)N[C@@H]2CN(CCOC)C[C@H]2c2ccc(F)c(F)c2)c1C [Example 380, 1-((3S,4R)-4-(3,4-difluorophenyl)-1-(2-methoxyethyl)pyrrolidin-3-yl)-3-(3-((R)-2-hydroxybutoxy)-4-methyl-1-phenyl-1H-pyrazol-5-yl)urea]
CCOC(=O)c1nn(-c2ccccc2)c(NC(=O)N[C@@H]2CN(CCOC)C[C@H]2c2ccc(F)c(F)c2)c1Br [Example 381, ethyl 4-bromo-5-(3-((3S,4R)-4-(3,4-difluorophenyl)-1-(2-methoxyethyl)pyrrolidin-3-yl)ureido)-1-phenyl-1H-pyrazole-3-carboxylate]
COCCN1C[C@@H](NC(=O)Nc2c(C)c(-c3cnn(CCOC)c3)nn2-c2ccccc2)[C@H](c2ccc(F)cc2)C1 [Example 382, 1-((3S,4R)-4-(4-fluorophenyl)-1-(2-methoxyethyl)pyrrolidin-3-yl)-3-(1′-(2-methoxyethyl)-4-methyl-1-phenyl-1H,1′H-[3,4′-bipyrazol]-5-yl)urea]
COCCN1C[C@@H](NC(=O)Nc2c(C)c(-c3cnn(CCOC)c3)nn2-c2ccccc2)[C@H](c2cccc(F)c2)C1 [Example 383, 1-((3S,4R)-4-(3-fluorophenyl)-1-(2-methoxyethyl)pyrrolidin-3-yl)-3-(1′-(2-methoxyethyl)-4-methyl-1-phenyl-1H,1′H-[3,4′-bipyrazol]-5-yl)urea]
